Measured values reported in patent US12303498B2, “ALK5 inhibitors as skeletal muscle hypertrophy inducers” (CYTOO, priority 2018, dated 2025).
Read-outs that look alike come from different tables or passages of the source.

Legend:
[1] = tested on: Human primary myoblasts (healthy donors 3, 1 and 5); test: MyoScreen hypertrophy assay on myotubes from healthy donors; type: cell-based; conditions: for EC50 / activity at 10 µM: Homo sapiens, Myoblast
Method: (§1) Healthy donor primary skeletal cells (Donor 1, Donor 3 and Donor 5) were Clonetics™ Human Skeletal Muscle Myoblasts (HSMM). In addition, cells from three DMD (Duchenne muscular dystrophy) donors (Donor Z, W and D1) and from a healthy donor (Donor A) were sourced.
(§2) Hypertrophy and Atrophy Rescue assays were performed using an in vitro fully automated human myotube model called MyoScreen™ (Cytoo, France). This model relies on a tight control of the microenvironment that guides the differentiation of human primary myoblasts. Myotubes formed on MyoScreen™ micropatterns present a high level of maturation together with a highly standardized morphology.
(§3) Human primary myoblasts from donors were seeded in MyoScreen™ micropatterned 96-well plates (Cytoo, France), let them adhere for 24 h in growth medium, then run the differentiation in a low horse serum medium for at least 5 days.
(§4) At Day 0, MyoScreen™ plates (Cytoo, France) containing micropatterns were pre-filled with 200 μl/well of growth medium and stored in the incubator at 37° C. Human primary myoblasts were detached from the flasks, count, and seeded into the plates with 15 000 cells per well in 100 μl of growth medium.
(§5) At Day 1, the growth medium was changed for a differentiation medium, 300 μl/well (DMEM with 0.1% horse serum) in which myoblasts started differentiating and forming myotubes.
(§6) At Day 2, the differentiation medium was changed. Then candidate compounds were diluted with differentiation medium and transferred into the plate. The final concentration of DMSO should be not higher than 0.1%. At least 6 wells were treated with the vehicle as a basal control, and 6 wells were treated with IGF-1 at 100 ng/ml as positive hypertrophy control.
(§7) At Day 6, cells were fixed with formalin 5% for 30 min at room temperature, then permeabilized with Triton X-100 at 0.1% in PBS for 15 min, and blocked with PBS+BSA 1% for 20 minutes. Myotubes were incubated with first antibody against Troponin T in blocking buffer for 1 h30, washed three times with PBS, incubated with secondary antibody and Hoescht ( 1/10000) for 1 h30, and washed three times with PBS.
(§8) Images were acquired at 10× magnification with an Operetta High Content Imaging System. Image processing and analysis were performed with dedicated algorithms developed on the Acapella High Content Imaging Software (Perkin Elmer) by CYTOO. Eleven fields per well were acquired.
First, segmentation of myotubes and nuclei were done using respectively the Troponin T staining intensity and the Hoechst staining. […] The threshold of segmentation was set-up in order to avoid detecting the background noise and eliminate aberrant small myotube structures.
(§9) Then, an image clean-up step was performed on the Troponin T images in order to remove myotubes that touch the border of the image. The final valid myotubes were used to extract myotube morphology parameters including the myotube width and area, and the number of nuclei per myotube.
Nuclei Count, Fusion Index, Mean myotube Area and Number of nuclei per myotube have been validated as relevant and sensitive readouts of myotube differentiation as well as atrophic and hypertrophic induction.
A primary screening was run to identify hypertrophy compounds that increase the myotube differentiation and size. Candidate compounds were tested at 10 μM in monoplicate on Donor 3 cells.
A retest was run, by cherry picking (same compound batch as primary screening): each hit was tested in the same conditions as in the Primary Screening (Donor 3, 10 μM) in six well replicates.

[2] = tested on: cells from DMD donors (Donor Z, W and D1); test: MyoScreen hypertrophy assay on myotubes from DMD donors; type: cell-based, human; conditions: fusion index (compound)*100/basal control; for Donor W (% Activity): DMD Donor W; for Donor Z (% Activity): DMD Donor Z; for Donor D1 (% Activity): DMD Donor D1
Method: as §1, §2, §3, §4, §5, §6, §7, §8
(§10) First, segmentation of myotubes and nuclei were done using respectively the Troponin T staining intensity and the Hoechst staining. One to two myotubes per micropattern were usually identified (a myotube is a troponin T staining area that includes at least 2 nuclei). The threshold of segmentation was set-up in order to avoid detecting the background noise and eliminate aberrant small myotube structures. At the end of this first step, specific readouts were calculated in the whole well, like the nuclei count and the fusion index (percentage of nuclei included in troponin T staining) Usually around 50 to 60 myotubes were detected per well in a control condition.
as §9

[3] = tested on: Donor Z (DMD donor) myotubes; test: Hypertrophy assay, combinations ALK5 inhibitor and glucocorticoid; type: cell-based, human; conditions: 4 days of treatment, prednisolone 10 nM, RepSox or GW788388 300 nM, alone or combined
[4] = tested on: Myotubes from Donors 5 and A
Description: Cells were washed with calcium buffer containing (in mM): 130 NaCl, 5.4 KCl, 1.8 CaCl2, 0.8 MgCl2, 5.6 D-glucose, 10 Hepes, pH 7.4. […] After washing to remove unloaded dye, myotube responses to electrical stimulation pulses were monitored using the FDSS/μCELL/EFS from Hamamatsu Photonics. Twitch stimulations were run at 0.2 Hz with pulse width 50 ms 5V for 60 seconds. Tetanus stimulation was run at 30 Hz with pulse width 15 ms 3V for 20 seconds. The Fluo-4 total fluorescence intensity is measured in each well. For data presentation, fluorescence intensities (F) were normalized to the mean intensity of the first timepoints (F/F0).

[5] = tested on: Myotubes from the healthy donor 3 atrophied by TNF-α, IL-1β, Myostatin, TGF-β or dexamethasone; test: Atrophy rescue assay (MyoScreen); type: cell-based, human; parameters: key: +++: total rescue; ++: partial rescue; +: low rescue; conditions: for atrophy rescue, IL-1: atrophy inducer IL-1β 25 ng/mL; for atrophy rescue, TGF-β: atrophy inducer TGF-β 0.5 ng/mL; for atrophy rescue, TNF-alpha: atrophy inducer TNF-α 2 ng/mL; for atrophy rescue, dexamethasone: atrophy inducer dexamethasone 100 μM; for atrophy rescue, Myostatin: atrophy inducer myostatin 150 ng/mL
Method: as §2, §3, §4, §5, §6
For Atrophy Rescue assay, one hour after candidate compound addition, atrophy inducers were added at the following final concentration: 150 ng/mL of myostatin, 25 ng/mL of IL-1β, 2 ng/mL of TNF-α, 0.5 ng/mL of TGF-β and 100 μM of dexamethasone.
as §7, §8, §10, §9
Atrophy Rescue assays were performed in triplicate in the presence of atrophy inducers, i.e. TNF-α, IL-1β, Myostatin, TGF-β and dexamethasone.
Atrophy rescue assays was performed for RepSox. Myotubes from the healthy donor 3 were atrophied using different inducers: TNF-α, IL-1β, Myostatin, TGF-β and dexamethasone.

[6] = tested on: AChR clusters in MyoScreen myotubes; test: Acetylcholine receptor clustering assay; type: cell-based, human; conditions: 8 days of differentiation including 7 days of drug treatment; for total AChR area increase: vs control myotubes
Method: The MyoScreen™ protocol was performed as described in the Hypertrophy and Atrophy rescue assay described in Example 1 but was stopped at Day 9 instead of Day 6. At the end of the assay, AchR were immunostained using a specific antibody in addition to Troponin T and nuclei. Images were acquired at ×20 with an Operetta High Content Imaging System from Perkin Elmer. Image processing and analyses were performed with a dedicated algorithm developed on the Acapella High Content Imaging Software (Perkin Elmer). Specific readouts were calculated in each well: nuclei count and myotube fusion index, number of AchR, AchR mean area, AchR total area normalized by the myotube total area.
Remarkably, when labeled with a specific anti-AChR antibody, MyoScreen myotubes at 6 days post-differentiation display AChR clusters punctuated along the sarcolemma membrane in the middle of the myotube fibre and in distinct regions at the ends of myotubes. To develop an automated AChR cluster assay, an AChR detection routine was developed that was sensitive and robust enough to analyze aggregate number and size clusters in images using the Operetta/Acapella system.

ACh-stimulated myotubes = test: Calcium flux assay after ACh stimulation; type: cell-based, human; conditions: for increase in [Ca2+]i peak amplitude compared to control myotubes: 20 μM ACh stimulation, myotubes differentiated 8 days, 7 days with compound
Method: Cells were then incubated for 1 h with 2 μM Fluo-4 AM (F14201-Invitrogen) in an incubator (37° C., 5% CO2). After washing to remove unloaded dye, myotube responses to 20 μM ACh (A6625-Sigma-Aldrich), were videoimaged. Stream acquisitions were set at 1 sec intervals and one field of view was acquired per well. Images were processed and analyzed automatically using a dedicated software developed in-house integrating the open-source ImageJ framework. The image analysis tool segments the myotubes in images acquired in the same well. The Fluo-4 total fluorescence intensity was measured inside each myotube and corrected for background. The total intensity was normalized to the myotube area to obtain the mean fluorescence intensity readout.

[7] = tested on: myotubes stimulated with 100 μM ACh; test: Contractile activity assay; type: cell-based, human; conditions: 5 days of differentiation including 4 days (96 h) treatment, RepSox 2 μM
Method: Cells were washed with calcium buffer as above. Myotube contraction was induced by addition of 100 μM ACh for 3 mins after which myotubes were fixed and immunostained with troponin T antibody. Automated acquisition was performed on the Operetta platform with a x10/0.3 NA objective. Detaching myotubes were automatically detected and quantified using Acapella, based on the detection of high intensity regions within the edges of segmented myotubes that mark the spots where the myotubes detached.

[8] = second dose response assay, healthy Donor 3, read-out: EC50
[9] = second dose response assay, healthy Donor 3
[10] = first dose response assay, healthy Donor 1
[11] = first dose response assay, healthy Donor 3
[12] = first dose response assay, healthy Donor 5

Compound: Cc1cccc(-c2nn(C(=S)Nc3ccccc3)cc2-c2ccnc3ccccc23)n1 [A 83-01]
- EC50 [1, 8]: 10 nM
- % Activity [1, 9]: 127%

Compound: NC(=O)c1ccc(-c2nc(-c3ccccn3)c(-c3ccc4c(c3)OCCO4)[nH]2)cc1 [D 4476]
- EC50 [1, 8]: < 1 nM
- % Activity [1, 9]: 128%

Compound: O=C(NC1CCOCC1)c1ccc(-c2cc(-c3c[nH]nc3-c3ccccn3)ccn2)cc1 [GW 788388]
- Donor W (% Activity) [2]: 118%
- Donor Z (% Activity) [2]: 196%
- EC50 [1, 8]: 88 nM
- % Activity [1, 9]: 130%

Compound: c1ccc(-c2n[nH]cc2-c2ccnc3ccccc23)nc1 [LY 364947]
- EC50 [1, 8]: 25 nM

Compound: C[C@]12C=CC(=O)C=C1CC[C@@H]1[C@@H]2[C@@H](O)C[C@@]2(C)[C@H]1CC[C@]2(O)C(=O)CO [Prednisolone, prednisolone]
- increase in Fusion index [3]: 25%
- increase in Myotube mean area [3]: does not enhance significantly

Compound: Cc1cccc(-c2n[nH]cc2-c2ccc(F)c(-c3cnn(CCO)c3)c2)n1 [R268712]
- EC50 [1, 8]: 1 nM
- % Activity [1, 9]: 132%

Compound: Cc1cccc(-c2n[nH]cc2-c2ccc3ncccc3n2)n1 [RepSox]
- tetanus response ([4]; Donor 5 myotubes, RepSox 3 to 500 nM, tetanus stimulation 30 Hz, vs Control myotubes): increases with RepSox concentrations
- calcium peak amplitude on repeated twitch electrical stimulations ([4]; Donor A and Donor 5 myotubes, RepSox 300 nM for 5 days, twitch 0.2 Hz): twice higher
- Donor D1 (% Activity) [2]: 210%
- Donor W (% Activity) [2]: 120%
- Donor Z (% Activity) [2]: 176%
- atrophy rescue, IL-1 [5]: ++
- atrophy rescue, TGF-β [5]: +++
- atrophy rescue, TNF-alpha [5]: ++
- atrophy rescue, dexamethasone [5]: +++
- atrophy rescue, Myostatin [5]: +++
- activity in dose responses on three healthy donors ([1]; Donors 3, 5 and 1): active on all donors
- EC50 ([1]; first dose response assay, healthy Donor 1, read-out: Donor 1 EC50): 560 nM
- EC50 ([1]; first dose response assay, healthy Donor 3, read-out: Donor 3 EC50): 5 nM
- EC50 ([1]; first dose response assay, healthy Donor 5, read-out: Donor 5 EC50): 2.5 nM
- activity at 10 µM ([1]; healthy Donor 3, 10 μM, monoplicate (IGF-1 100 ng/ml), % Activity = Myotube fusion index (compound)*100/Myotube Fusion index (basal control), read-out: Primary screening (% Activity)): 183%
- activity at 10 µM ([1]; healthy Donor 3, 10 μM, six well replicates (IGF-1 100 ng/ml), fusion index vs basal control, read-out: Retest (% Activity)): 171%
- EC50 [1, 8]: 5 nM
- Donor 1 % Activity [1, 10]: 143%
- Donor 3 % Activity [1, 11]: 140%
- Donor 5 % Activity [1, 12]: 204%
- increase in the fusion index or/and myotube area readouts ([1]; primary screening and retest, Donor 3, 10 μM): > 170%
- % Activity [1, 9]: 140%
- AChR clusters [6]: substantially more AChR clusters
- total AChR area increase [6]: 6 fold
- increase in [Ca2+]i peak amplitude compared to control myotubes (ACh-stimulated myotubes): 1.56 fold
- number of retracting myotubes after ACh stimulation (ACh-stimulated myotubes; calcium flux time-lapse videos): marked increase
- increase in Fusion index [3]: 100%
- increase in Myotube mean area [3]: 68%

Compound: Cc1cccc(-c2[nH]c(C(C)(C)C)nc2-c2ccc3c(c2)OCO3)n1 [SB 505124]
- EC50 [1, 8]: < 1 nM
- % Activity [1, 9]: 136%

Compound: Cc1cccc(-c2nc(C(C)(C)C)[nH]c2-c2ccc3nccnc3c2)n1 [SB 525334]
- EC50 [1, 8]: 3 nM
- % Activity [1, 9]: 142%

Compound: Fc1ccc(Cl)cc1-c1nc(Nc2ccncc2)c2nccnc2n1 [SD208]
- EC50 [1, 8]: 65 nM
- % Activity [1, 9]: 138%

Compound: IGF-1: IGF-1 at 100 ng/ml as positive hypertrophy control
- Donor D1 (% Activity) [2]: 163%
- Donor W (% Activity) [2]: 100%
- Donor Z (% Activity) [2]: 143%
- atrophy rescue, IL-1 [5]: +++
- atrophy rescue, TGF-β [5]: ++
- atrophy rescue, TNF-alpha [5]: +++
- atrophy rescue, dexamethasone [5]: +++
- atrophy rescue, Myostatin [5]: +++
- Donor 1 % Activity [1, 10]: 150%
- Donor 3 % Activity [1, 11]: 178%
- Donor 5 % Activity [1, 12]: 185%
- Primary screening (% Activity) ([1]; healthy Donor 3, 10 μM, monoplicate (IGF-1 100 ng/ml), % Activity = Myotube fusion index (compound)*100/Myotube Fusion index (basal control)): 210%
- Retest (% Activity) ([1]; healthy Donor 3, 10 μM, six well replicates (IGF-1 100 ng/ml), fusion index vs basal control): 190%
- % Activity [1, 9]: 178%
- active contractile force (percentage of myotubes that exhibit strong contractions) [7]: 67±5%
- total AChR area increase [6]: no effect
- increase in [Ca2+]i peak amplitude compared to control myotubes (ACh-stimulated myotubes): no effect
- increase in Fusion index [3]: 160%
- increase in Myotube mean area [3]: 54%
